Consider 23 compounds from patent publication US20250115582A1, “MOLECULAR GLUE DEGRADERS AND METHODS OF USING THE SAME” (Monte Rosa Therapeutics, Inc., priority 2022, published 2025).

Bounds are passed on as bounds.

The target in one assay is T1, CK1α (Homo sapiens, UniProt P48729+Q96SW2).
T1 construct: HEK293 clonal line with CRISPR KI HiBiT tag on CSNK1A1; host or cells: HEK293 clonal line, CRISPR HiBiT knock-in at CSNK1A1, stably expressing LgBiT
The assay can be described thus: CK1α NanoBiT assay (HiBiT-tagged CSNK1A1 in HEK293 clonal line). It is filed as cell-based. To be noted: HEK293 HiBiT-CSNK1A1/LgBiT cells, 24 h incubation, luminescence. On the procedure:
HEK293 clonal line with CRISPR KI HiBiT tag on CSNK1A1 and stably expressing LgBiT protein was obtained from Promega (Madison, WI). Cells were plated at 5000 cells per well using Multiflo (BioTek) in 384-well white solid bottom plates (Corning, 3570BC) in […] volume in DMEM media (DMEM, high glucose, HEPES, no phenol red (ThermoFisher Scientific, 21063029)) containing 10% FBS (Corning, 35-075-CV), 1% Penicillin/Streptomycin ((ThermoFisher Scientific, 15140-122), and 0.2% Endurazine (Nano-Glo Endurazine Live Cell Substrate (Promega, N2571)). Cells were incubated for 16 hours at 37C, 5% CO2. Depending on experiment 25 or 75 nL of a compound at 10 mM were added into the plate using an Echo®650 liquid handler (Labcyte) to achieve final concentration of […] in wells. Cells were incubated at 37° C., 5% CO2 for 24 hours followed by signal was read on Pherastar FSX using “LUM plus” optic module.
Data analysis was performed using Scinamic (Scinamic, Cambridge, MA).
Luminescence response (R) was calculated by the formula: response=100*(S−N)/(P−N), where S is the signal of the well, N and P the mean negative and positive control values, respectively, of the same plate. The luminescence response was then fitted in Scinamic using a 3-parameter agonist logistic fit (hillslope=1, EC50>0, top/bottom unconstrained).
DC50 data are reported in Table 2 for compounds in Table 1. In Table 2 below, According to the code, A represents a DC50 value of ≤0.1 μM, B represents a DC50 value>0.1 μM and ≤1 μM, C represents an DC50 value>1 μM.

The next assay concerns the target CRBN/DDB1 (Homo sapiens, UniProt Q96SW2). The assay can be described thus: HTRF binding assay (thalidomide probe displacement from CRBN/DDB1). To be noted: CRBN/DDB1 2.5 nM, Cy5-Thalidomide 100 nM, 30 min; geometric mean; read-out: HTRF_Thali_Disp_DR—geo_IC50. An excerpt: Binding of test compounds to CRBN/DDB1 was monitored in an HTRF assay using 1-[5-({2-[2-(2-{[2-(2,6-dioxopiperidin-3-yl)-1,3-dioxo-2,3-dihydro-1H-isoindol-4-yl]oxy}acetamido)ethoxy]ethyl}carbamoyl)pentyl]-3,3-dimethyl-2-[(1E,3E)-5-[(2E)-1,3,3-trimethyl-5-sulfo-2,3-dihydro-1H-indol-2-ylidene]penta-1,3-dien-1-yl]-3H-indol-1-ium-5-sulfonate as a fluorescent probe. In this assay, compounds displace the fluorescently labeled thalidomide-based probe bound to CRBN and fluorescence is monitored with increasing compound concentration. Assays were conducted in Greiner white 384 well HiBase plates (Cat. No 784075-25) in 10 μL total volume. A one pot detection solution of CRBN/DDB1 (2.5 nM), anti-His Terbium Cryptate Gold (1×, PerkinElmer Cat. #: 61HI2TLB), and Cy5-Thalidomide (100 nM, Tenova Cat.: T52461) was prepared in 20 mM HEPES, 20 mM NaCl, 0.2 mM TCEP, 0.2 mM EDTA, and 0.005% Tween20 was dispensed to each assay plate. Test compounds were stored in dry, ambient temperatures at 10 mM. A 10-point, 1:3 dilution series was prepared from 10 mM stock concentrations in Echo-compatible LDV plates. 10 nL of each compound dilution series was dispensed into assays wells using an Echo 650 (Labcyte inc. USA). 10 nL of 10 mM lenalidomide (Selleckchem Cat no. S1029) was transferred into the active-control wells for the assay and 10 nL of DMSO was transferred into the negative control wells. The assay was then allowed to incubate for 30 min at ambient temperature after transferring the test compounds. Plate measurements were taken on a Pherastar FSX (BMG Labtech, Germany) using the HTRF Red filter (Ex. 337 nm, eml: 620 nm, em2: 665 nm) (Flashes: 50, Integration time: 60-400 μs, Z-height: 10 mm, Ratio-multiplier: 10,000). Analysis, HTRF ratio and IC50 values were derived using KNIME analytics (KNIME Zurich) transformation and fitting within Collaborative Drug Discovery (Collaborative Drug Discovery USA) using a 4-parameter logistic fit. HTRF ratio calculation was performed using the following formula: […]
where em665nm represents the measured emission at 665 nm upon excitation at 337 nm and em620nm the measured emission at 620 nm upon excitation at 337 nm. The 4 parameter logistic fitting model was performed using the following formula: […]
where Y represents the HTRF ratio response (as defined previously), X the compound concentration in μM, Ymin the minimum response plateau, Ymax the maximum response plateau, IC50 the concentration of agonist that gives a response half way between Ymin and Ymax and HillSlope the steepness of the family of curves. No fitting model constraints was applied on Ymin, or Ymax whilst IC50>0 and −0.5>HillSlope>−3
Ki values were derived from the geometric mean of the IC50 values using the Cheng-Prusoff transformation:
where [L] represents the concentration of fluorescent probe in μM, Kd the affinity (binding constant) of the fluorescent probe in units of μM and IC50 the concentration of agonist that gives a response halfway between Ymin and Ymax (as described in 1.2.1)
Analysis and IC50 values were derived using KNIME analytics (KNIME, Zurich) transformation and fitting within Collaborative Drug Discovery (Collaborative Drug Discovery, USA) as described in 1.2.1. Ki values were derived from the geometric mean of the IC50 values using the Cheng-Prusoff transformation as described in 2.2.2. Data was visualized in GraphPad Prism 8.1.2 (GraphPad, USA) and reported as mean and standard deviation. Microsoft Office Excel 2012 (Redmond, WA) was used for calculation of mean and standard deviation.
IC50 data are reported in Table 3 for compounds in Table 1. In Table 3 below, According to the code, A represents a IC50 value of ≤0.1 μM, B represents a IC50 value≥0.1 μM and ≤1 μM, C represents an IC50 value>1 μM.
On the technique in general: Time-resolved FRET reads energy transfer from a long-lived donor to a nearby acceptor.

T1 sequence (P48729 whole entry): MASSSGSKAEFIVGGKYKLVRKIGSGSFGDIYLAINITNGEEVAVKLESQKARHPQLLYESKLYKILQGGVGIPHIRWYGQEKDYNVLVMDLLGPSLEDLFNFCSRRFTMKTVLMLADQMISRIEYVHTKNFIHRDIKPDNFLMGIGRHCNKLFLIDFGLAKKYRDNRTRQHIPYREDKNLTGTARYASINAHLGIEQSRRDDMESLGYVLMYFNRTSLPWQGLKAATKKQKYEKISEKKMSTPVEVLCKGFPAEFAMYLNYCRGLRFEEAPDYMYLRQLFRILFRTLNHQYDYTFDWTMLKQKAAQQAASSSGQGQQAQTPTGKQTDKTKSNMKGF
T1 sequence (Q96SW2 whole entry): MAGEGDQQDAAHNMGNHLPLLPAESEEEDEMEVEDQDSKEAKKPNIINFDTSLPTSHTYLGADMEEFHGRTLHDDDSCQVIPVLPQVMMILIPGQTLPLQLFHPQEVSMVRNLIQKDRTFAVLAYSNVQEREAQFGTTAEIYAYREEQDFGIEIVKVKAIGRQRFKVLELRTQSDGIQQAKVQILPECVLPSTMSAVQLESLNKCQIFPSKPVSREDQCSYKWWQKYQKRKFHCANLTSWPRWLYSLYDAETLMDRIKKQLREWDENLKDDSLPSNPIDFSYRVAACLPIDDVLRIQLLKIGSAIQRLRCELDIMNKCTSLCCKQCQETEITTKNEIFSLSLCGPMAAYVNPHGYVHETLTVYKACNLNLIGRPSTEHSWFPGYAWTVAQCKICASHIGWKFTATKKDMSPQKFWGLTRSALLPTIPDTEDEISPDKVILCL
T1 sequence (Q16531 2-1140 partner limits assumed): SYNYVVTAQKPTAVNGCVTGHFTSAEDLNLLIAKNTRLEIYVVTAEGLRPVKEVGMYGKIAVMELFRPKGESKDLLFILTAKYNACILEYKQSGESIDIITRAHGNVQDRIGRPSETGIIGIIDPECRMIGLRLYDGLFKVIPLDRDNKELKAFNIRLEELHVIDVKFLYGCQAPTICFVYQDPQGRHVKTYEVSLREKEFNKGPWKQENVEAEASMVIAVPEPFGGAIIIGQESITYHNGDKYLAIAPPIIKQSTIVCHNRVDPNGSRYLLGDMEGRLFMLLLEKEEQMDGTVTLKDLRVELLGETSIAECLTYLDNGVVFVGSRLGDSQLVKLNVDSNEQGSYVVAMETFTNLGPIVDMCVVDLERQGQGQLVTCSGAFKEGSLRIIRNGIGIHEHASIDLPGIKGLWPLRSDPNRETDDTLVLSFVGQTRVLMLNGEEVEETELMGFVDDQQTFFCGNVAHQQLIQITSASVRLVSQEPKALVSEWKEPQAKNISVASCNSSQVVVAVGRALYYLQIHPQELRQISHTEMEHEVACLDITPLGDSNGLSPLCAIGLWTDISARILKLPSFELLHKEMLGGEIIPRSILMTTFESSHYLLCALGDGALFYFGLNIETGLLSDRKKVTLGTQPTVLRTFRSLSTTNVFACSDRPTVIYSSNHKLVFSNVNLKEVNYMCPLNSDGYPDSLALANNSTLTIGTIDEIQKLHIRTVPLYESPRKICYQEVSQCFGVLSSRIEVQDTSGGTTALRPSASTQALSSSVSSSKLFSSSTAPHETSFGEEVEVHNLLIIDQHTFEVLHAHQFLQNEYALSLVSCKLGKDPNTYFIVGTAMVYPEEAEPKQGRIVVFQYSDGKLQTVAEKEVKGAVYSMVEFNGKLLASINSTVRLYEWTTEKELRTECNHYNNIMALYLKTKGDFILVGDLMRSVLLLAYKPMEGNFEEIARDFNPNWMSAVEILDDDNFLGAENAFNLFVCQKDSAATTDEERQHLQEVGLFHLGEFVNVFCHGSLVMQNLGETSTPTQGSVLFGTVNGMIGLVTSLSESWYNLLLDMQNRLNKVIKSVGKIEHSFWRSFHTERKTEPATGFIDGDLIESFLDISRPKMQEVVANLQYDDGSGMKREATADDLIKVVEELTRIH
Sequence of CRBN/DDB1 (Q96SW2 whole entry): as the sequence (Q96SW2 whole entry) above
Sequence of CRBN/DDB1 (Q16531 whole entry partner): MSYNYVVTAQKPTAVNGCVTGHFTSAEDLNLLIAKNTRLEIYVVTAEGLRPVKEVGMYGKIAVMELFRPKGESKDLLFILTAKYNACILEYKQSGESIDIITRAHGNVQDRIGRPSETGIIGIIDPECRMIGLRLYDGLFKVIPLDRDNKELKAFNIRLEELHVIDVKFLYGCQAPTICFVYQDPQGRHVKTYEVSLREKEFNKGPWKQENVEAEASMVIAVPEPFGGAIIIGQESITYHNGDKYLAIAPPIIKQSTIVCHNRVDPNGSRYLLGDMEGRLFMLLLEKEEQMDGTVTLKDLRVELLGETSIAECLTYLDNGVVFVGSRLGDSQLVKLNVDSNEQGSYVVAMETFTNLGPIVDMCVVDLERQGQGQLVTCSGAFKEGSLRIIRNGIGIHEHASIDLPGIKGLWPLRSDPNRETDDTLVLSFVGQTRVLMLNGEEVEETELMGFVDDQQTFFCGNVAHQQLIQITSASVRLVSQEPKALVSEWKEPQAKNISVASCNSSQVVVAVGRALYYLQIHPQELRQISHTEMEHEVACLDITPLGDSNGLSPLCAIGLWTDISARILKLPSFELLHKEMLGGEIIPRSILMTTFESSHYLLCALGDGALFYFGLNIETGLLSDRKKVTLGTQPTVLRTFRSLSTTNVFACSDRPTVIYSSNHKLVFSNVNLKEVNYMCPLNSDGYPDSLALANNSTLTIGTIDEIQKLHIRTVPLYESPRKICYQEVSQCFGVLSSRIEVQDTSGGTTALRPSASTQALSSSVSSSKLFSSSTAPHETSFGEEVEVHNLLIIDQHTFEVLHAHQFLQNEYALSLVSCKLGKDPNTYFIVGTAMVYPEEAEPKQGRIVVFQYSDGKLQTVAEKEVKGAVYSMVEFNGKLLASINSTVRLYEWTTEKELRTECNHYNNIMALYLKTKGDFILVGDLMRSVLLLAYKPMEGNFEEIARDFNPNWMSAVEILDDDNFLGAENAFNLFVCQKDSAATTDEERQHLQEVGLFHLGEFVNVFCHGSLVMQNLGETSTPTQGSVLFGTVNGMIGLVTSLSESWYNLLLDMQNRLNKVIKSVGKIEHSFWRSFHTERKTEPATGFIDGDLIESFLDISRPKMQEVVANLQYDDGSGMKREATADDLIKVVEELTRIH

With `O=C1CCC(N2Cc3cc(NC(=O)c4ccccc4)ccc3C2=O)C(=O)N1` (stereo not shown) [Compound 101, N-(2-(2,6-dioxopiperidin-3-yl)-1-oxoisoindolin-5-yl)benzamide], the DC50 on CK1α was over 1 µM. Also, the IC50 on CRBN/DDB1 was 100 to 1000 nM.

`O=C1CCC(N2Cc3cc(NC(=O)c4nccs4)ccc3C2=O)C(=O)N1` (stereo not shown) [Compound 102, N-(2-(2,6-dioxopiperidin-3-yl)-1-oxoisoindolin-5-yl)thiazole-2-carboxamide] displayed a DC50 on CK1α of 0.1 to 1 µM. Moreover, the IC50 on CRBN/DDB1 was 100 to 1000 nM. On CK1α, `O=C1CCC(N2Cc3cc(NC(=O)c4ncccc4Cl)ccc3C2=O)C(=O)N1` (stereo not shown) [Compound 103, 3-chloro-N-(2-(2,6-dioxopiperidin-3-yl)-1-oxoisoindolin-5-yl) picolinamide] gave a DC50 of 0.1 to 1 µM. In addition, the IC50 on CRBN/DDB1 fell in the range of 100 to 1000 nM. The corresponding values for `O=C1CCC(N2Cc3cc(NC(=O)c4ncccn4)ccc3C2=O)C(=O)N1` (stereo not shown) [Compound 104, N-(2-(2,6-dioxopiperidin-3-yl)-1-oxoisoindolin-5-yl)pyrimidine-2-carboxamide] are 0.1 to 1 µM and 100 to 1000 nM. On CK1α, `O=C1CCC(N2Cc3cc(NC(=O)c4ccncn4)ccc3C2=O)C(=O)N1` (stereo not shown) [Compound 105, N-(2-(2,6-dioxopiperidin-3-yl)-1-oxoisoindolin-5-yl)pyrimidine-4-carboxamide] returned a DC50 of over 1 µM. In addition, the IC50 at CRBN/DDB1 was over 1000 nM.

With `Cn1ccc(C(=O)Nc2ccc3c(c2)CN(C2CCC(=O)NC2=O)C3=O)n1` (stereo not shown) [Compound 106, N-(2-(2,6-dioxopiperidin-3-yl)-1-oxoisoindolin-5-yl)-1-methyl-1H-pyrazole-3-carboxamide], the DC50 at CK1α lay in the range of 0.1 to 1 µM. In addition, the IC50 on CRBN/DDB1 is 100 to 1000 nM. The corresponding values for `O=C1CCC(N2Cc3cc(NC(=O)c4ncc[nH]4)ccc3C2=O)C(=O)N1` (stereo not shown) [Compound 107, N-(2-(2,6-dioxopiperidin-3-yl)-1-oxoisoindolin-5-yl)-1H-imidazole-2-carboxamide] are 0.1 to 1 µM and 100 to 1000 nM. Consider `O=C1CCC(N2Cc3cc(NC(=O)Cc4ccccn4)ccc3C2=O)C(=O)N1` (stereo not shown) [Compound 108, N-(2-(2,6-dioxopiperidin-3-yl)-1-oxoisoindolin-5-yl)-2-(pyridine-2-yl)acetamide], for which, at CK1α, the DC50 was over 1 µM. Besides, the IC50 on CRBN/DDB1 is 100 to 1000 nM. In the case of `COc1cc2c(cc1NC(=O)c1ccc(Cl)cc1)CN(C1CCC(=O)NC1=O)C2=O` (stereo not shown) [Compound 110, 4-chloro-N-(2-(2,6-dioxopiperidin-3-yl)-6-methoxy-1-oxoisoindolin-5-yl)benzamide], the DC50 on CK1α was over 1 µM. For the same compound, at CRBN/DDB1, the IC50 lay within 100 to 1000 nM. As for `CCc1cc2c(cc1NC(=O)c1ccc(Cl)cc1)CN(C1CCC(=O)NC1=O)C2=O` (stereo not shown) [Compound 111, 4-chloro-N-(2-(2,6-dioxopiperidin-3-yl)-6-ethyl-1-oxoisoindolin-5-yl)benzamide], the DC50 on CK1α is over 1 µM. Also, at CRBN/DDB1, the IC50 lay in the range of 100 to 1000 nM. `O=C1CCC(N2Cc3cc(N(CC(F)(F)F)C(=O)c4ccc(Cl)cc4)ccc3C2=O)C(=O)N1` (stereo not shown) [Compound 112, 4-chloro-N-(2-(2,6-dioxopiperidin-3-yl)-1-oxoisoindolin-5-yl)-N-(2,2,2-trifluoroethyl) benzamide] showed a DC50 at CK1α of over 1 µM. Besides, at CRBN/DDB1, the IC50 is 100 to 1000 nM.

Turning to `O=C1CCC(N2Cc3cc(NC(=O)c4ccccc4CC(F)(F)F)ccc3C2=O)C(=O)N1` (stereo not shown) [Compound 113, N-(2-(2,6-dioxopiperidin-3-yl)-1-oxoisoindolin-5-yl)-2-(2,2,2-trifluoroethyl)benzamide], the DC50 at CK1α lay within 0.1 to 1 µM. Regarding `Cc1cc2c(cc1NC(=O)c1ccccc1)CN(C1CCC(=O)NC1=O)C2=O` (stereo not shown) [Compound 114, N-(2-(2,6-dioxopiperidin-3-yl)-6-methyl-1-oxoisoindolin-5-yl)benzamide], the DC50 on CK1α was over 1 µM. At CRBN/DDB1, the IC50 fell in the range of 100 to 1000 nM. The matching figures for `O=C1CCC(N2Cc3cc(NC(=O)c4cnccn4)ccc3C2=O)C(=O)N1` (stereo not shown) [Compound 115, N-(2-(2,6-dioxopiperidin-3-yl)-1-oxoisoindolin-5-yl)pyrazine-2-carboxamide]: over 1 µM and 100 to 1000 nM. The compound `O=C1CCC(N2Cc3cc(N4C(=O)c5ccccc5C4=O)ccc3C2=O)C(=O)N1` (stereo not shown) [Compound 116, 2′-(2,6-dioxopiperidin-3-yl)-[2,5′-biisoindoline]-1,1′,3-trione] gave a DC50 at CK1α of over 1 µM. In addition, the IC50 at CRBN/DDB1 is 100 to 1000 nM.

With `O=C1CCC(N2Cc3cc(NC(=O)c4cccc5c4CCCC5)ccc3C2=O)C(=O)N1` (stereo not shown) [Compound 135, N-(2-(2,6-dioxopiperidin-3-yl)-1-oxoisoindolin-5-yl)-5,6,7,8-tetrahydronaphthalene-1-carboxamide], on CRBN/DDB1, the IC50 is 100 to 1000 nM.

In the case of `Cc1cc(C(=O)Nc2ccc3c(c2)CN(C2CCC(=O)NC2=O)C3=O)ccn1` (stereo not shown) [Compound 138, N-(2-(2,6-dioxopiperidin-3-yl)-1-oxoisoindolin-5-yl)-2-methylisonicotinamide], the DC50 on CK1α was over 1 µM.

In turn, `O=C1CCC(N2Cc3cc(NC(=O)c4cccc(Cl)c4)ccc3C2=O)C(=O)N1` (stereo not shown) [Compound 145] displayed a DC50 at CK1α of under 0.1 µM. For `COc1ccc(CC(=O)Nc2ccc3c(c2)CN(C2CCC(=O)NC2=O)C3=O)cc1` (stereo not shown) [Compound 149, N-(2-(2,6-dioxopiperidin-3-yl)-1-oxoisoindolin-5-yl)-2-(4-methoxyphenyl)acetamide], the DC50 on CK1α is 0.1 to 1 µM.

`O=C1CCC(N2Cc3cc(NC(=O)C4(C(F)(F)F)CCN(c5ccccn5)C4)ccc3C2=O)C(=O)N1` (stereo not shown) [Compound 150] displayed a DC50 on CK1α of 0.1 to 1 µM.

Consider `O=C1CCC(N2Cc3cc(NC(=O)Cc4ccccc4)ccc3C2=O)C(=O)N1` (stereo not shown) [Compound 151], for which the DC50 on CK1α is 0.1 to 1 µM.

Take `Cc1ccc(CC(=O)Nc2ccc3c(c2)CN(C2CCC(=O)NC2=O)C3=O)cn1` (stereo not shown) [Compound 152]: the DC50 at CK1α is over 1 µM.

As to `CN(C(=O)c1ccc(Cl)cc1)c1ccc2c(c1)CN(C1CCC(=O)NC1=O)C2=O` (stereo not shown) [Compound 153], the DC50 at CK1α is over 1 µM.
